Reference: EP4732839A1, “USE OF COMPOUND IN TREATMENT OF LIVER DISEASES” (priority 2023, dated 2025)

Tests used:
Hep3B-luc = Hep3B-luc liver orthotopic xenograft mouse model; conditions: Hep3B-luc liver orthotopic tumor model, 3 mg/kg
hepatitis B virus (HBV) = assay: Anti-hepatitis B virus activity in HBV-infected primary human hepatocytes; format: cell-based, HBV type B; conditions: HBV-infected PHHs
Experimental: The culture supernatant from one donor (donor 1) was selected to stimulate HBV-infected primary hepatocytes (PHHs), and interferon α and nucleoside analog entecavir (ETV) were selected as positive controls. The experimental procedures were as follows (FIG. 14a), and the detailed procedures were as follows: On day -1, cryopreserved PHHs were thawed and adjusted to a density of 6 × 10^5 cells/mL, and the PHHs were seeded into a 48-well plate at 0.22 mL/well.
On day 0, the PHHs were infected with HBV type B at 600 GE/cells.
On day 1, the culture medium was replaced with a fresh one, and reference compounds ETV and Peg-IFN-α2a (Pegasys-Roche) were added to the cells to treat the cells. The reference compounds ETV and Peg-IFN-α2a for the PHHs were each prepared at one concentration, with three replicate wells.
The PBMC supernatants were each prepared at 4 test concentrations, diluted at a ratio of 1:4, and then added to the cells. Three replicate wells were made for each test condition. The culture medium was replaced with a fresh culture medium containing the PBMC supernatants and the reference compounds on days 5, 7, 9, and 11. On day 13, the cell supernatants were collected and the cell viability was detected using CCK-8.
The content of HBV DNA in the supernatants was determined by qPCR according to the kit instructions. HBsAg and HBeAg levels in the supernatants were determined by ELISA.

[1] = system: IFN-α, IP-10, IL-6, and TNF-α; assay: Liver safety: cytokine ELISA in liver tissue; format: in vivo, C57BL/6J wild-type female mice
Experimental: (§1) C57BL/6J wild-type female mice (6 weeks old) were randomly grouped. After administration at different doses, whole blood and liver tissues of the mice were separately collected at 1 h, 2 h, and 4 h for detection of a plurality of parameters to evaluate the effect of the drugs on the liver.
(§2) Liver tissues and blood were collected at 1 h, 2 h, and 4 h after single dosing.
(§3) The supernatant was collected and stored (-20 °C); • (3) IFN-α, IP-10, IL-6, and TNF-α were detected using an ELISA kit. • (C) Remaining liver tissue-HE staining and pathological evaluation. • (D) 1/2 blood (whole blood)-liver function parameter detection: AST (aspartate aminotransferase), ALT (alanine aminotransferase/glutamate pyruvate transaminase), ALP (alkaline phosphatase), ALB (albumin), and GGT (γ-glutamyl transferase). • (E) 1/2 blood-serum preparation-reserve for ELISA.

in vivo = assay: in vivo
Experimental: C57BL/6 mice, 8 weeks old, female/male, 27, supplier: SPF (Beijing) Biotechnology Co., Ltd.
The body weight of the animals was measured and recorded daily.
All groups were subjected to clinical observations before administration and 1 to 2 h after administration, and additional observations were performed if necessary. Deaths and mortality were checked twice daily. The observations should include, but are not limited to, the following: fur condition, activity, mental status, vomiting, diarrhea, and abnormal secretions around the eyes. All animals should be observed on the day of necropsy, and any abnormal findings should be recorded.
The rectal temperature of all animals was measured and recorded at 0 h before administration and at 2 h, 4 h, 8 h and 24 h after administration.
The experiment was terminated on day 7 after administration. A gross necropsy was performed to examine abdominal and thoracic organs for lesions, and the spleen and liver were collected for weighing.

[2] = 3/10/20 mpk i.g., livers collected 1 h, 2 h, 4 h post-dose
Experimental: as §1, §2, §3

[3] = Liver microsome metabolic stability (human); conditions: Human liver microsomes, 1 µM compound, 1 mg/mL, NADPH, 37 °C
Experimental: The metabolic stability of the compounds in in vitro liver microsomes was evaluated. The procedures and steps were as follows: At 37 °C, 1 µM of the compounds was incubated in 1 mg/mL liver microsomes. The reaction system was a 0.1 M potassium phosphate buffer (pH 7.4) containing 3 mmol/L MgCl2 and 1 mmol/L NADPH. At the beginning of the reaction, the small molecules and the liver microsomes were pre-incubated at 37 °C for 10 min, and subsequently a cofactor NADPH was added to initiate the metabolic reaction. The reaction was quenched at 0 min, 5 min, 10 min, 20 min, 30 min, and 60 min using three volumes of ice-cold methanol containing an internal standard (200 nM labetalol). After incubation at room temperature for 10 min, the samples were centrifuged at 4000 rpm at 4 °C for 20 min, and the supernatants were collected, diluted with chromatography-grade purified water in a 1:1 ratio, and then subjected to quantitative analysis. […] After a 6-minute chromatographic separation on a C18 column (50 × 2.1 mm; 2.6 µm) under a gradient mobile phase of 0.1% formic acid in water, the peaks corresponding to specified ionic signals were detected. […] The detailed operation process was as follows: • 1) The compound working solution was added to all 96-well reaction plates (T0, T5, T10, T20, T30, and T60) at 10 µL/well, except the blank wells. • 2) The microsomal solution was added to all the reaction wells (T0, T5, T10, T20, T30, T60, and blank wells) at 80 µL/well. • 3) The plates were pre-incubated at 37 °C for 10 min. • 4) After pre-incubation, NADPH was added to each reaction plate at 10 µL/well to initiate the reaction. • 5) At the set end time point, a 4 °C methanol solution (containing an internal standard: 200 nM labetalol) was added to each reaction plate at 300 µL/well to quench the reaction. • 6) Each plate was sealed and shaken for 10 min. • 7) The mixture was shaken well and centrifuged at 4000 rpm at 4 °C for 20 min. • 8) 300 µL of the supernatant was collected, and HPLC-grade water was added at 300 µL/well. The mixture was well mixed and then subjected to LC-MS analysis.
The metabolic half-life (T1/2) and the metabolic clearance rate (CLint(mic)) (µL/min/mg) were calculated using a first-order kinetic equation.

[4] = C57BL/6 mice, single intragastric administration

Structure (SMILES): COCCNc1nc(N)nc2ccc(Cc3ccc(CN4CCOCC4)cc3)nc12 [Compound II]
- maximum body weight loss (Hep3B-luc): 5.4%
- TGI (Hep3B-luc; IG, QW × 3, p < 0.05): 61.6%
- activity for inhibiting HBV DNA compared with Peg-IFN-α2a (100 IU/mL) (hepatitis B virus (HBV); PBMC supernatant (donor 1)): comparable
- activity for reducing hepatitis B surface antigen compared with Peg-IFN-α2a (100 IU/mL) (hepatitis B virus (HBV); PBMC supernatant (donor 1)): slightly stronger
- anti-HBV activity compared with GS-9688 (hepatitis B virus (HBV); PBMC supernatant (donor 1)): significantly stronger
- levels of surface antigens HBeAg and HBsAg (hepatitis B virus (HBV); agonist-treated PBMC supernatant (donor 1) or reference compound, supernatant ELISA day 13): significantly reduced
- level of HBV DNA (hepatitis B virus (HBV); agonist-treated PBMC supernatant (donor 1) or reference compound, supernatant qPCR day 13): significantly reduced
- expression levels of IL-6, TNF-α, IFN-α, and IP-10 ([1]; 3/10/20 mpk groups i.g. single dose, 1 h, 2 h, 4 h): all peaked at 2 h, and decreased at 4 h
- IP-10 (CXCL-10) secretion ([1]; i.g. single dose): significantly induced
- Cage-side observation (in vivo; 20 mg/kg, group 6, male animal No. 35, day 2): white secretions around the eyes
- rectal temperature (in vivo; 2 h after treatment, significant difference vs vehicle group, returned to normal 4 h, 8 h and 24 h): decreased
- Adverse reactions at maximum tolerated dose/probability (in vivo; [4]): White secretion around the eyes (1/6)
- Weight loss at maximum tolerated dose: whether recovered (in vivo; [4]): Yes
- Weight loss rate at maximum tolerated dose (in vivo; [4]): 14%
- With or without mouse death (in vivo; [4]): No
- body weight (in vivo; male and female animals, 10-40 mg/kg single administration, began to recover from day 3 to day 7): decreased after the single administration
- MTD at 168 h (in vivo; mouse, in vivo, po): 40 mg/kg
- Liver HE staining [2]: did not cause apparent pathological damage to the liver tissues
- k [3]: 0.0197 L/min
